Assay results as given in US20200270576A1, “Ex Vivo Maintenance and Expansion of Stem Cells” (priority 2017, published 2020).

How the values were obtained:
[1] = tested on: primary bone marrow cells; assay: OPP incorporation (protein synthesis) by flow cytometry; format: cell-based, mouse; details: pre-treatment with translation inhibitor; primary bone marrow cells in culture
Experimental: FIG. 1A-D depict quantification of protein synthesis in hematopoietic cells. FIG. 1A depicts how 0-propargyl-puromycin (OPP) was used to quantify protein synthesis within cells. OPP is a puromycin analog with a terminal alkyne group that mimics an aminoacyl-tRNA and integrates into nascent polypeptides. Azide-alkyne cycloaddition can covalently link a fluorescently tagged azide molecule to OPP that has been incorporated into new peptides. FIG. 1B depicts that when OPP was added to cell culture medium, its incorporation in primary bone marrow cells was detected and quantified by flow cytometry. […] FIG. 1C depicts OPP incorporation in CD150^+CD48^−Lineage^−Sca1^+ckit^+ (CD150^+CD48^−LSK) HSCs and unfractionated bone marrow cells one hour after administration in vivo. FIG. 1D depicts OPP incorporation (protein synthesis rates) in HSCs, multipotent progenitors (MPP), common myeloid progenitors (CMP), granulocyte macrophage progenitors (GMP), granulocytes (GR) megakaryocyte erythroid progenitors (MEP), CD71^+Ter119^+ erythroid progenitors (E), pro-B, pre-B, IgM^+ B cells (IgM), CD3^+ T cells (T), and unfractionated bone marrow cells (BM). […] Statistical significance relative to HSCs was assessed using a repeated-measures one way ANOVA followed by Dunnett's test (n=9; **P<0.01, ***P<0.001).

CD48-LSK HSCs/MPPs = assay: Western blot of ubiquitylated protein in cultured HSCs; format: cell-based, mouse; details: added to culture medium; HSCs 4 and 18 hours in vitro
Experimental: FIG. 10A-C depicts increased protein synthesis and reduced protein quality within HSCs in vitro. FIG. 10A depicts relative protein synthesis rates of HSCs normalized to bone marrow cells in vivo (n=6) and after 4 hours in vitro (n=5). Statistical significance was assessed with a two-tailed Student's t-test (***P<0.001). FIGS. 10B and 10C depict western blots that examined ubiquitylated protein levels in freshly isolated or cultured CD48^−LSK HSCs/MPPs. […] The accumulation of ubiquitylated protein was prevented by addition of the translation inhibitor cycloheximide (CHX) to culture medium.
The accumulation of ubiquitylated protein could be blocked by adding the translation inhibitor cycloheximide to the culture medium (FIG. 10B, 10C).

bone marrow cells = assay: TMI fluorescence (unfolded protein) in bone marrow cells from treated mice; format: in vivo; details: bone marrow cells isolated from treated mice
Experimental: FIG. 6A-D depict the validation of tetraphenylethene maleimide (TMI) as a probe to measure unfolded protein. FIG. 6A depicts that TMI is a cell permeable dye that fluoresces upon binding to cysteine thiols. The free thiol side chains of non-disulphide bonded hydrophobic cysteines are typically buried within the core of globular proteins, but can be exposed in unfolded proteins. FIG. 6B depicts that TMI fluorescence was higher in bone marrow cells after a 4 hour incubation at 42° C. as compared to 37° C. Since heat shock induces protein unfolding, this validated TMI as a means to quantify unfolded protein. FIG. 6C depicts that TMI fluorescence in bone marrow cells was increased after treatment with the proteasome inhibitor bortezomib. […] FIG. 6B-D validated that TMI can be used to quantify unfolded protein (protein quality) in hematopoietic cells.
As a complement to evaluating protein quality by assessing changes in ubiquitylated protein, a quantitative orthogonal assay to measure protein quality was developed. Tetraphenylethene maleimide (TMI) is a cell permeable dye that fluoresces upon binding to cysteine thiols. […] We adapted TMI to quantify unfolded proteins within single hematopoietic cells by flow cytometry. We validated TMI by assessing the effect of heat shock, which induces protein unfolding, on TMI fluorescence in bone marrow cells. […]

Hsf1 = Hsf1 expression and localization by immunofluorescence in cultured HSCs; format: cell-based, mouse; details: 10 days culture; 17-AAG 5 nM, HSF1A 8 uM final concentration
Source text: FIG. 14 depicts representative immunofluorescence staining of HSCs cultured for 10 days in the presence or absence of 17-AAG or HSF1A. Addition of 17-AAG or HSF1A to culture medium increased Hsf1 accumulation in the nucleus of cultured HSCs. Hsf1-deficient HSCs and cells stained without primary antibody (Neg Con) are shown as controls.
Since Hsf1 promoted HSC maintenance and protein homeostasis in vitro (FIG. 13), we investigated whether increasing Hsf1 expression or activity would further enhance HSC maintenance. […] Hsf1 can become active as a transcription factor when it translocates to the nucleus. We thus tested whether inhibitors of HSP90 or TRiC would promote Hsf1 accumulation in the nucleus of cultured HSCs by culturing HSCs for 10 days in the presence or absence of 17-AAG (HSP90 inhibitor; 5 nM final concentration) or HSF1A (TRiC inhibitor; 8 uM final concentration), and assessed Hsf1 expression and localization by immunofluorescence.

HSCs = assay: Competitive transplantation of HSCs cultured 10 days, with serial transplantation; format: cell-based, murine
Source text: FIG. 16A-B depict that HSC functionality is maintained and expanded in vitro by interventions that can induce/activate Hsf1. FIG. 16A depicts donor cell engraftment 16 weeks after transplantation of 10 HSCs cultured for 10 days in the presence or absence of an HSP90 inhibitor (17-AAG) or TRiC inhibitor (HSF1A) or from 10 freshly isolated HSCs. Cells were transplanted with 2×10^5 freshly isolated congenic bone marrow cells (n=3 independent experiments with 3-5 recipients/condition/experiment). […] Addition of either 17-AAG or HSF1A increased the reconstituting potential of cultured HSCs as compared to both control cultured and freshly isolated HSCs.
To test if HSCs depend on Hsf1 for their maintenance in vitro, we conditionally deleted Hsf1 from HSCs, cultured them for 10 days and assessed their long-term multilineage reconstituting activity in competitive transplantation assays. The assay for testing HSC function is to assess their capacity to give long-term (16+ week) multilineage (B cell, T cell and myeloid cell) reconstitution of the blood system of an irradiated transplant recipient. A competitive transplantation assay provides a quantitative readout of HSC regenerative activity.
Modest declines in proteostasis impair HSC maintenance in vivo. […] This raises the possibility that increasing Hsf1 activity could promote HSC maintenance in vitro by enhancing proteostasis capacity. To test if HSP90 inhibitors or TRiC inhibitors promote HSC maintenance in vitro, purified HSCs were sorted from young adult murine bone marrow (CD45.1^+) into 96-well plates (10/well) containing our HSC medium supplemented with 17-AAG or HSF1A. HSCs were cultured for 10 days and competitively transplanted with 2×10^5 freshly isolated congenic bone marrow cells (CD45.2^+) into irradiated mice (CD45.2^+). Recipient mice were bled monthly (for 4 months) to assess levels of donor-derived CD45.1^+ hematopoietic cells. Self-renewal capacity of HSCs was assessed by serially transplanting hematopoietic cells from the primary recipients into secondary irradiated recipients (3×10^6 cells/recipient). […] Similar results are expected for other HSP90 or TRiC inhibitors.
To test if HSP90 inhibitors or TRiC inhibitors enable HSC expansion in vitro, purified HSCs were sorted from young adult bone marrow (CD45.1^+) into 96-well plates (10/well) containing HSC medium supplemented with 17-AAG or HSF1A. HSCs were cultured for 10 days and competitively transplanted with 2×10^5 freshly isolated congenic bone marrow cells (CD45.2^+) into irradiated mice (CD45.2^+). At the same time, 10 freshly isolated HSCs were transplanted with 2×10^5 freshly isolated congenic bone marrow cells into irradiated mice. Recipient mice were bled monthly (for 4 months) to assess levels of donor-derived CD45.1^+ hematopoietic cells. Self-renewal capacity of HSCs was assessed by serially transplanting hematopoietic cells (3×10^6 cells/recipient) into secondary irradiated recipients. […] Similar results are expected for other HSP90 or TRiC inhibitors.

[2] = tested on: Hsf1-deficient and control HSCs; assay: Competitive transplantation of cultured wild-type and Hsf1-deficient HSCs; format: cell-based, mice; details: 12 weeks after transplantation
Source text: FIG. 17 depicts that Hsf1 is required for 17-AAG and HSF1A to enhance HSC maintenance and expansion in vitro. Donor cell engraftment 12 weeks after transplantation of 10 wild-type and Hsf1-deficient HSCs cultured for 10 days in the presence or absence of 17-AAG, HSF1A or DMSO. Cells were transplanted with 2×10^5 freshly isolated congenic bone marrow cells (n=7-9; *P<0.05, **P<0.01).
We tested whether the positive effects of 17-AAG and HSF1A on HSC maintenance/expansion in vitro were mediated by Hsf1. Purified Hsf1-deficient and control HSCs were sorted from adult bone marrow (CD45.2^+) into 96-well plates (10/well) containing HSC medium supplemented with 17-AAG, HSF1A or vehicle (DMSO). HSCs were cultured for 10 days and competitively transplanted with 2×10^5 freshly isolated congenic bone marrow cells (CD45.1^+) into irradiated mice (CD45.1^+). Recipient mice were bled monthly to assess levels of donor-derived CD45.2^+ hematopoietic cells. […] However, the positive effect of 17-AAG and HSF1A was lost with Hsf1-deficient HSCs (FIG. 17).

C[C@@H]1C[C@@H]([C@H](O)CC2CC(=O)NC(=O)C2)C(=O)[C@@H](C)C1 [cycloheximide]
incorporation of OPP (new protein synthesis) [1]: inhibited
accumulation of ubiquitylated protein (CD48-LSK HSCs/MPPs): blocked

CC(C)C[C@H](NC(=O)[C@H](Cc1ccccc1)NC(=O)c1cnccn1)B(O)O [Bortezomib]
increase in TMI fluorescence as compared to cells from vehicle treated controls (bone marrow cells): ~30%

CCc1ccc(S(=O)(=O)Nc2cc(-c3cccs3)nn2-c2ccccc2)cc1 [HSF1A]
Hsf1 abundance in the nucleus of cultured HSCs (Hsf1): increase Hsf1 abundance in the nucleus
donor cell reconstitution vs recipients of freshly isolated HSCs (HSCs; 10 HSCs cultured 10 days vs 10 freshly isolated HSCs): higher levels of donor cell reconstitution as compared to recipients of freshly isolated HSCs
donor cell reconstitution in primary recipients vs HSCs cultured without agent (HSCs; 10 HSCs cultured 10 days, with 2x10^5 congenic bone marrow cells, 16 weeks): significantly higher levels of donor cell reconstitution as compared to controls
fraction of recipients with long-term multilineage reconstitution vs HSCs cultured without agent (HSCs; primary and secondary transplants, 16 week, >0.5% B-, T-, myeloid cells): greater fraction
fraction of recipients with long-term multilineage reconstitution vs freshly isolated HSCs (HSCs; secondary transplants): significantly greater fraction
donor cell reconstitution in secondary recipients vs HSCs cultured without agent (HSCs; serial transplant, 3x10^6 cells/recipient): even more pronounced
donor cell reconstitution vs controls (DMSO), control HSCs ([2]; 10 HSCs cultured 10 days): higher levels of donor cell reconstitution as compared to controls
positive effect on donor cell reconstitution with Hsf1-deficient HSCs ([2]; Hsf1-deficient HSCs cultured 10 days): lost
